According to US12691070B2, “Cationic lipids and preparation method thereof” (RiboX Therapeutics HK Limited, priority 2023, dated 2026):

How the values were obtained:
BALB/C mice = test: In vivo expression, whole-body luminescence (IVIS); conditions: cirRNA (SEQ ID NO: 1) LNPs, BALB/C mice
Experimental: 6-8 week old, female BALB/C mice were injected with 0.05 mg*kg-1 of RNA-LNPs encoding for firefly-luciferase by intravenous injection. At 6 hours post injection, animals were intraperitoneally injected with 15 mg/ml of Luciferin substrate and whole-body luminescence was determined by a bioluminescent in vivo imaging system (IVIS).

RAW 264.7 cells [1] = test: In vitro toxicity (CellTiter-Glo cell viability), RAW 264.7; type: cell-based; conditions: cirRNA (SEQ ID NO: 1) LNPs; RAW 264.7 cells;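 also: percent of untreated cells luminescence signal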
Outline: (§1)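 Cells were transfected with RNA-LNPs at 1 μg/mL and, 72 hours later, viability was measured by CellTiter-Glo luminescence. Values are cell viability calculated from the luminescence signal.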

[2] = LNP zeta potential (Zetasizer); type: physicochemical; conditions: LNP with cirRNA (SEQ ID NO: 1)
Outline: (§2)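 LNPs of ionizable lipid/DSPC/cholesterol/DMG-PEG 2000 (50:10:38.5:1.5) made by microfluidic mixing of luciferase circRNA or mRNA in pH 4.5 acetate with lipids in ethanol (3:1, 12 ml/min), ionizable lipid:nucleotide 15 or 6, then dialyzed against PBS. Size, PDI (DLS) and zeta potential on Zetasizer; encapsulation by Ribogreen ± Triton X-100.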

RAW 264.7 cells [3] = test: In vitro expression of firefly-luciferase, RAW 264.7; type: cell-based; conditions: cirRNA (SEQ ID NO: 1) LNPs; firefly-luciferase luminescence; RAW 264.7 cells
Outline: (§3)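 Both cell lines receive RNA-LNPs carrying firefly-luciferase RNA at 100 ng/mL. Lysis follows washing at 72 h post-transfection, and luciferase activity is then quantified on a luminometer using a commercial luciferase assay reagent.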

Hep G2 cells [4] = test: In vitro toxicity (CellTiter-Glo cell viability), Hep G2; type: cell-based; conditions: cirRNA (SEQ ID NO: 1) LNPs; Hep G2 cells;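 also: percent of untreated cells luminescence signal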
Outline: as §1

[5] = LNP size and polydispersity index (PDI) by dynamic light scattering; type: physicochemical; conditions: LNP with cirRNA (SEQ ID NO: 1); for Size: in nm (unit assumed)
Outline: as §2

Hep G2 cells [6] = test: In vitro expression of firefly-luciferase, Hep G2; type: cell-based; conditions: cirRNA (SEQ ID NO: 1) LNPs; firefly-luciferase luminescence; Hep G2 cells
Outline: as §3

[7] = RNA encapsulation efficacy by Quant-IT Ribogreen kit; type: physicochemical; conditions: LNP with cirRNA (SEQ ID NO: 1)
Outline: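 Ribogreen read-out: encapsulation = 100% − (signal of intact RNA-LNPs / signal with Triton X-100). Particles: ionizable lipid:DSPC:Chol:DMG-PEG2000 50:10:38.5:1.5, ionizable lipid:ribonucleotide 15 or 6, final lipid 1.5–6 mM, PBS-dialyzed.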

SMILES | In vivo Expression (Whole Body) (BALB/C mice) | In vitro Viability RAW (RAW 264.7 cells [1]) | Zeta (mV) [2] | In vitro Expression RAW (RAW 264.7 cells [3]) | In vitro Viability HepG2 (Hep G2 cells [4]) | PDI [5] | Size [5] | In vitro Expression HepG2 (Hep G2 cells [6]) | Encapsulation Efficiency % [7]
CCCCCCCCCC(=O)OCCCCCCCN(CCCCCCCCOC(=O)C(CCCCCC)CCCCCCCC)CCOC(=O)NCCN1CCN(C)CC1 (stereo not drawn) [Lipid 200] | 6.79E+05 | 0% | 7.27 mV | 4.45E+04 | 103% | 0.2967 | 82.06 | 4.46E+05 | 95%
CCCCCCCCCC(=O)OCCCCCCCCN(CCCCCCCCOC(=O)CCCCCCCCC)CCOC(=O)NCCN(C)C [Lipid 202] | 2.33E+05 | 92% | 16.36 mV | 3.35E+02 | 94% | 0.1932 | 60.75 | 2.49E+05 | 93%
CCCCCCCCCC(=O)OCCCCCCCCN(CCCCCCCCOC(=O)CCCCCCCCC)CCOC(=O)NCc1ncc[nH]1 [Lipid 203] | 6.84E+06 | 91% | −0.09389 mV | 7.82E+04 | 103% | 0.08783 | 98.65 | 1.12E+04 | 73%
CCCCCCCCCC(=O)OCCCCCCCCN(CCCCCCCCOC(=O)CCCCCCCCC)CCOC(=O)NCCN1CCN(C)CC1 [Lipid 205] | 6.61E+05 | 95% | 18.81 mV | 7.09E+03 | 94% | 0.1521 | 61.16 | 5.81E+05 | 94%
CCCCCCCCCC(=O)OCCCCCCCCN(CCCCCCCCOC(=O)CCCCCCCCC)CCOC(=O)NCCN1CCCC1 [Lipid 209] | 6.62E+05 | 95% | 13.53 mV | 1.08E+02 | 96% | 0.1886 | 86.68 | 3.81E+04 | 93%
CCCCCCCC/C=C\CCCCCCCCN(CCCCCCCCOC(=O)C(CCCCCC)CCCCCCCC)CCOC(=O)NCCN(C)C (stereo not drawn) [Lipid 211] | 1.09E+07 | 91% | 7.113 mV | 2.36E+05 | 90% | 0.2243 | 97.77 | 1.14E+07 | 94%
CCCCCCCC/C=C\CCCCCCCCN(CCCCCCCCOC(=O)C(CCCCCC)CCCCCCCC)CCOC(=O)NCc1ncc[nH]1 (stereo not drawn) [Lipid 212] | 4.68E+06 | 82% | −3.175 mV | 1.44E+05 | 99% | 0.1853 | 65.77 | 6.37E+04 | 93%
